According to patent US8637674B2, “Pyrazole derivatives, preparation method thereof, and composition for prevention and treatment of osteoporosis containing same” (EWHA University-Industry Collaboration Foundation, priority 2009, dated 2014):

Each compound was assayed against reactive oxygen species generated in kidney membrane (NADPH oxidase) (assay: Inhibition of reactive oxygen species generation in kidney membrane (lucigenin-based assay)). Settings: 37° C. for 10 minutes, luminescence, compounds at 40, 10, 2.5, 0.625, 0 μM.
Assay type: biochemical, rat (Rattus norvegicus)
Method: A kidney was isolated from a rat (Rattus norvegicus) and washed with phosphate buffered saline (PBS). The tissue was soaked in 20 mL of PBS buffer containing a protease inhibitor (Aprotinin 1 μg/mL-USB 11388, Leupeptin 1 μg/mL-USB-18413), finely disrupted using a mixer, and then transferred to a 50 mL conical tube (SPL 50050), followed by centrifugation at 10000 g for 10 minutes (MF-600 plus, Hanil) to sediment the undisrupted tissue. The supernatant was separated and collected in a fresh tube. The tube was placed in ice and subjected to sonication about 4 times each cycle for 30 seconds until the supernatant became clear (Branson Digital Sonifier, Model CE Converter 102C). The supernatant was transferred to a high-speed centrifugation tube (Beckman 331372) and then centrifuged at 100000 g for 1 hour (Optima™ L-90 K Preparative Ultracentrifuge, SW41Ti rotor, Beckman). After the supernatant was discarded, the remaining pellet was washed once with cold PBS and dissolved in 500 μL of cold PBS containing a protease inhibitor to obtain a murine kidney membrane.
Reactive oxygen species generated in the thus-obtained kidney membrane was analyzed by a lucigenin-based assay.
Specifically, each of the compounds synthesized in Examples of the present invention (40 μM, 10 μM, 2.5 μM, 0.625 μM, and 0 μM) was placed in a luminescence assay microplate, and the isolated kidney membrane and lucigenin were sequentially added thereto, followed by incubation at 37° C. for 10 minutes. Then, the intensity of luminescence was measured in a luminometer (MicroLumatPlus LB96V Microplate Luminometer, Berthold) to assay the generation of reactive oxygen species in the murine kidney membrane, followed by calculating an EC50 value of the inventive compounds.

In order of falling EC50:
1. Oc1cc(CCc2ccccc2)nn1-c1ccccn1 [Compound 3d, 3-phenethyl-1-(pyridin-2-yl)-1H-pyrazol-5-ol]  10 µM
2. Oc1cc(COc2ccccc2)nn1-c1ccccn1 [Compound 6a, 3-(phenoxymethyl)-1-(pyridin-2-yl)-1H-pyrazol-5-ol]  7.5 µM
3. Oc1cc(COc2ccc(Cl)cc2Cl)nn1-c1ccccn1 [Compound 6d, 3-((2,4-dichlorophenoxy)methyl)-1-(pyridin-2-yl)-1H-pyrazol-5-ol]  1.8 µM
4. Oc1cc(C=Cc2ccc(Cl)c(Cl)c2)nn1-c1ccccn1 [Compound 9d, 3-(3,4-dichlorostyryl)-1-(pyridin-2-yl)-1H-pyrazol-5-ol]  1.7 µM
5. Oc1cc(Cc2ccc(Cl)cc2)nn1-c1ccccn1 [Compound 3e, 3-(p-chlorobenzyl)-1-(pyridin-2-yl)-1H-pyrazol-5-ol]  1.5 µM
6. Oc1ccc(C=Cc2cc(O)n(-c3ccccn3)n2)cc1 [Compound 9k, 3-(4-hydroxystyryl)-1-(pyridin-2-yl)-1H-pyrazol-5-ol]  1.5 µM
7. CC(C)(C)[Si](C)(C)Oc1ccc(/C=C/c2cc(O)n(-c3ccccn3)n2)cc1 [Compound 9g]  0.9 µM
8. COc1ccc(C=Cc2cc(O)n(-c3ccccn3)n2)cc1OC [Compound 9c, 3-(3,4-dimethoxystyryl)-1-(pyridin-2-yl)-1H-pyrazol-5-ol]  0.6 µM
9. Oc1cc(C=Cc2ccccc2)nn1-c1ccccn1 [Compound 9a, 1-(pyridin-2-yl)-3-styryl-1H-pyrazol-5-ol]  0.5 µM
10. COc1ccc(C=Cc2cc(O)n(-c3ccccn3)n2)cc1 [Compound 9b, 3-(4-methoxystyryl)-1-(pyridin-2-yl)-1H-pyrazol-5-ol]  0.5 µM
11. Oc1cc(C=Cc2ccc(C(F)(F)F)cc2)nn1-c1ccccn1 [Compound 9f, 3-(4-trifluoromethylstyryl)-1-(pyridin-2-yl)-1H-pyrazol-5-ol]  0.5 µM
12. Oc1cc(COc2ccc3ccccc3c2)nn1-c1ccccn1 [Compound 6b, 3-((naphthalen-3-yloxy)methyl)-1-(pyridin-2-yl)-1H-pyrazol-5-ol]  0.4 µM
